Laboratory results reported in PMC10817945, “Design of a novel analogue peptide with potent antibiofilm activities against Staphylococcus aureus based upon a sapecin B-derived peptide” (Scientific Reports, 2024).
In brackets after ≈: the same amount, converted by molar mass. Several values for one entry are separate records, joined by “and”; a condition that tells them apart may be missing. Equal entries are not always repeated. Where two headings read alike, the source gives them in different places.

Experiments:
S. aureus isolates [1] = test: Kirby-Bauer disk diffusion antimicrobial susceptibility testing; assay type: cell-based, Staphylococcus aureus; also: key: R: Resistant; S: Susceptible
Source text: Three MRSA, two MSSA clinical isolates, and one S. aureus reference strain (ATCC 25923) were investigated in this study. […] The presence of the mecA/mecC gene was studied by PCR in all cefoxitin resistant isolates[42],[43].

Human red blood cells = test: Hemolysis assay; conditions: human erythrocytes, 1 h, 37 °C
Experimental: The assay was performed using fresh human blood samples containing citrate phosphate dextrose anticoagulant collected from a blood bank (Iranian Blood Transfusion Organization). Human red blood cells (RBC) were centrifuged at 1700×g for 5 min; then the supernatant was removed and the erythrocyte pellet was diluted 1:100 in PBS to obtain a 1% erythrocyte suspension. […] Then, 50 μl of the 1% erythrocyte suspension and 50 μl of the peptides were mixed and added to wells of a 96-well polypropylene conical bottom microplate and incubated at 37 °C for 1 h. Following centrifugation of the samples at 1700×g for 5 min, 50 μl of the supernatant was transferred to wells of a 96-well flat-bottom plate for the absorbance measurement at 405 nm in a microplate reader. Identical volumes of Triton X-100 (1%) and PBS were used as positive and negative controls, respectively. The selectivity indexes (SI) were also determined as a toxicity indicator.

S. aureus isolates [2] = test: microbe, parasite or virus in culture; assay type: cell-based, Staphylococcus aureus
Experimental: (§1) Minimum inhibitory concentrations (MIC) of KLK, mKLK, and vancomycin were determined using microdilution broth assay according to clinical and laboratory standards institute (CLSI) guidelines with some modifications. Briefly, overnight cultures were diluted in Muller-Hinton broth (MHB; Merck, Germany) to achieve a final density of 5 × 10^5 CFU/ml. A volume of 100 μl of bacterial suspension was added to wells of sterile 96-well plates containing 100 μl of two-fold peptide dilutions, ranging from 0.25 to 256 µg/ml. Vancomycin was used as a positive control in this assay. […] MBC was determined by removing samples from wells with no visible growth, serially diluting, and plating on Mueller Hinton (MH) agar plates for CFU counting.

[3] = test system: one MRSA and reference strain (ATCC25923); test: Time-kill kinetics assay
Experimental: The peptide-free control was included for each strain. Following incubation at 37 °C for 0, 0.25, 0.5, 1, 2, 4, 5, and 24 h, each sample was serially diluted, plated onto Mueller–Hinton (MH) agar (Merck, Germany) plates and incubated at 37 °C. The viable plate count method was performed after incubation for 24 h and the counts were expressed as Log CFU/ml[44].

S. aureus isolates [4] = assay type: cell-based, Staphylococcus aureus
Experimental: as §1

[5] = test system: clinical Salmonella isolates; parameters: method as in PMID 34361810; conditions: cited from earlier work
[6] = test system: drug resistant Mycobacterium abscessus isolates; parameters: method as in ref 33 (Sudadech et al.); conditions: ref 33 (Sudadech et al.), cited from earlier work

In the case of CC1(C)S[C@@H]2[C@H](NC(=O)[C@H](N)c3ccccc3)C(=O)N2[C@H]1C(=O)O [AMP, Ampicilln], the Antimicrobial susceptibility testing (S. aureus isolates [1]; MRSA-1) is reported as “R”, the Antimicrobial susceptibility testing (S. aureus isolates [1]; MRSA-2) is reported as “R” and the Antimicrobial susceptibility testing (S. aureus isolates [1]; MRSA-3) is reported as “R”. The Antimicrobial susceptibility testing (S. aureus isolates [1]; MSSA-1) was “S” and the Antimicrobial susceptibility testing (S. aureus isolates [1]; MSSA-2) was “S”.
In the case of O=C(N[C@H](CO)[C@H](O)c1ccc([N+](=O)[O-])cc1)C(Cl)Cl [C, Chloramphenicol], the Antimicrobial susceptibility testing (S. aureus isolates [1]; MRSA-1) is reported as “S”, the Antimicrobial susceptibility testing (S. aureus isolates [1]; MRSA-2) is reported as “S” and the Antimicrobial susceptibility testing (S. aureus isolates [1]; MRSA-3) is reported as “S”. For the same compound, the Antimicrobial susceptibility testing (S. aureus isolates [1]; MSSA-1) was “S” and the Antimicrobial susceptibility testing (S. aureus isolates [1]; MSSA-2) was “S”.
For CC[C@H]1OC(=O)[C@H](C)[C@@H](O[C@H]2C[C@@](C)(OC)[C@@H](O)[C@H](C)O2)[C@H](C)[C@@H](O[C@@H]2O[C@H](C)C[C@H](N(C)C)[C@H]2O)[C@](C)(O)C[C@@H](C)C(=O)[C@H](C)[C@@H](O)[C@]1(C)O [E, Erythromycin], the Antimicrobial susceptibility testing (S. aureus isolates [1]; MRSA-1) was “S”, the Antimicrobial susceptibility testing (S. aureus isolates [1]; MRSA-2) was “S” and the Antimicrobial susceptibility testing (S. aureus isolates [1]; MRSA-3) was “S”. For the same compound, the Antimicrobial susceptibility testing (S. aureus isolates [1]; MSSA-1) was “S” and the Antimicrobial susceptibility testing (S. aureus isolates [1]; MSSA-2) was “S”.
For CO/N=C(\C(=O)N[C@@H]1C(=O)N2C(C(=O)[O-])=C(C[N+]3(C)CCCC3)CS[C@H]12)c1csc(N)n1 [FEP, Cefepime], the Antimicrobial susceptibility testing (S. aureus isolates [1]; MRSA-1) was “R”, the Antimicrobial susceptibility testing (S. aureus isolates [1]; MRSA-2) was “R” and the Antimicrobial susceptibility testing (S. aureus isolates [1]; MRSA-3) was “R”. For the same compound, the Antimicrobial susceptibility testing (S. aureus isolates [1]; MSSA-1) was “S” and the Antimicrobial susceptibility testing (S. aureus isolates [1]; MSSA-2) was “S”.
With CO[C@@]1(NC(=O)Cc2cccs2)C(=O)N2C(C(=O)O)=C(COC(N)=O)CS[C@@H]21 [FOX, Cefoxicitin] the Antimicrobial susceptibility testing (S. aureus isolates [1]; MRSA-1) was “R”, the Antimicrobial susceptibility testing (S. aureus isolates [1]; MRSA-2) was “R” and the Antimicrobial susceptibility testing (S. aureus isolates [1]; MRSA-3) was “R”. The Antimicrobial susceptibility testing (S. aureus isolates [1]; MSSA-1) was “S” and the Antimicrobial susceptibility testing (S. aureus isolates [1]; MSSA-2) was “S”.
With CNC(C)C1CCC(N)C(OC2C(N)CC(N)C(OC3OCC(C)(O)C(NC)C3O)C2O)O1 (centres unmarked) [GEN, Gentamicin] the Antimicrobial susceptibility testing (S. aureus isolates [1]; MRSA-1) was “S”, the Antimicrobial susceptibility testing (S. aureus isolates [1]; MRSA-2) was “S” and the Antimicrobial susceptibility testing (S. aureus isolates [1]; MRSA-3) was “S”. The Antimicrobial susceptibility testing (S. aureus isolates [1]; MSSA-1) was “S” and the Antimicrobial susceptibility testing (S. aureus isolates [1]; MSSA-2) was “S”.
In the case of CC[C@H](C)[C@H](NC(=O)[C@H](CCCCN)NC(=O)[C@H](CCC(=O)O)NC(=O)[C@H](CCCCN)NC(=O)[C@H](CO)NC(=O)[C@H](CCCCN)NC(=O)[C@H](CCCNC(=N)N)NC(=O)[C@H](Cc1ccccc1)NC(=O)[C@H](Cc1ccccc1)NC(=O)[C@H](CC(=O)O)NC(=O)CNC(=O)[C@H](CC(C)C)NC(=O)[C@@H](N)CC(C)C)C(=O)NCC(=O)N[C@@H](CCCCN)C(=O)N[C@@H](CCC(=O)O)C(=O)N[C@@H](Cc1ccccc1)C(=O)N[C@@H](CCCCN)C(=O)N[C@@H](CCCNC(=N)N)C(=O)N[C@H](C(=O)N[C@H](C(=O)N[C@@H](CCC(N)=O)C(=O)N[C@@H](CCCNC(=N)N)C(=O)N[C@H](C(=O)N[C@@H](CCCCN)C(=O)N[C@@H](CC(=O)O)C(=O)N[C@@H](Cc1ccccc1)C(=O)N[C@@H](CC(C)C)C(=O)N[C@@H](CCCNC(=N)N)C(=O)N[C@@H](CC(N)=O)C(=O)N[C@@H](CC(C)C)C(=O)N[C@H](C(=O)N1CCC[C@H]1C(=O)N[C@@H](CCCNC(=N)N)C(=O)N[C@H](C(=O)N[C@@H](CCC(=O)O)C(=O)N[C@@H](CO)C(=O)O)[C@@H](C)O)C(C)C)[C@@H](C)CC)C(C)C)[C@@H](C)CC [LL-37], the HC50 (Human red blood cells) is reported as 150 µM and 673.5 µg/ml.
With CC(=O)NC[C@H]1CN(c2ccc(N3CCOCC3)c(F)c2)C(=O)O1 [LZD, Linezolide] the Antimicrobial susceptibility testing (S. aureus isolates [1]; MRSA-1) was “S”, the Antimicrobial susceptibility testing (S. aureus isolates [1]; MRSA-2) was “S” and the Antimicrobial susceptibility testing (S. aureus isolates [1]; MRSA-3) was “S”. The Antimicrobial susceptibility testing (S. aureus isolates [1]; MSSA-1) was “S” and the Antimicrobial susceptibility testing (S. aureus isolates [1]; MSSA-2) was “S”.
With CO[C@H]1/C=C/O[C@@]2(C)Oc3c(C)c(O)c4c(O)c(c(/C=N/N5CCN(C)CC5)c(O)c4c3C2=O)NC(=O)/C(C)=C\C=C\[C@H](C)[C@H](O)[C@@H](C)[C@@H](O)[C@@H](C)[C@H](OC(C)=O)[C@@H]1C [RP, Rifampicin] the Antimicrobial susceptibility testing (S. aureus isolates [1]; MRSA-1) was “S”, the Antimicrobial susceptibility testing (S. aureus isolates [1]; MRSA-2) was “S” and the Antimicrobial susceptibility testing (S. aureus isolates [1]; MRSA-3) was “S”. For the same compound, the Antimicrobial susceptibility testing (S. aureus isolates [1]; MSSA-1) was “S” and the Antimicrobial susceptibility testing (S. aureus isolates [1]; MSSA-2) was “S”.
With CN(C)[C@@H]1C(O)=C(C(N)=O)C(=O)[C@@]2(O)C(O)=C3C(=O)c4c(O)cccc4[C@@](C)(O)[C@H]3C[C@@H]12 [TE, Tetracycline] the Antimicrobial susceptibility testing (S. aureus isolates [1]; MRSA-1) was “R”, the Antimicrobial susceptibility testing (S. aureus isolates [1]; MRSA-2) was “R” and the Antimicrobial susceptibility testing (S. aureus isolates [1]; MRSA-3) was “R”. For the same compound, the Antimicrobial susceptibility testing (S. aureus isolates [1]; MSSA-1) was “R” and the Antimicrobial susceptibility testing (S. aureus isolates [1]; MSSA-2) was “R”.
With CN[C@H](CC(C)C)C(=O)N[C@H]1C(=O)N[C@@H](CC(N)=O)C(=O)N[C@H]2C(=O)N[C@H]3C(=O)N[C@H](C(=O)N[C@H](C(=O)O)c4cc(O)cc(O)c4-c4cc3ccc4O)[C@H](O)c3ccc(c(Cl)c3)Oc3cc2cc(c3O[C@@H]2O[C@H](CO)[C@@H](O)[C@H](O)[C@H]2O[C@H]2C[C@](C)(N)[C@H](O)[C@H](C)O2)Oc2ccc(cc2Cl)[C@H]1O [vancomycin, Vancomycin] the MIC (S. aureus isolates [2]; ATCC25923) was 0.25 µg/mL (≈ 0.173 µM), the MIC (S. aureus isolates [2]; MRSA-1) was 0.25 µg/mL (≈ 0.173 µM) and the MIC (S. aureus isolates [2]; MRSA-2) was 0.5 µg/mL (≈ 0.345 µM). For the same compound, the MIC (S. aureus isolates [2]; MRSA-3) was 0.5 µg/mL (≈ 0.345 µM), the MIC (S. aureus isolates [2]; MSSA-1) was 0.25 µg/mL (≈ 0.173 µM) and the MIC (S. aureus isolates [2]; MSSA-2) was 0.25 µg/mL (≈ 0.173 µM). For the same compound, the MIC (S. aureus isolates [2]; Staphylococcus aureus) was 0.25 to 0.5 µg/mL (≈ 0.173 to 0.345 µM), the “time after which no regrowth was observed” value ([3]; ATCC 25923, 1 × MIC (0.25 μg/ml)) was 24 h and the “reduction in viable cell count” value ([3]; ATCC 25923, 1 × MIC, during 4 h) was ~ 3 log. For the same compound, the “time after which no regrowth was observed” value ([3]; ATCC 25923, 2 × MIC) was 24 h, the “reduction in viable cell count” value ([3]; ATCC 25923, 2 × MIC, within 4 h) was ~ 4 log and the “time after which no regrowth was observed” value ([3]; MRSA, 1 × MIC) was 24 h. The “reduction in viable cell count” value ([3]; MRSA, 1 × MIC (0.5 μg/ml), during 5 h) was ~ 2 log, the “time after which no growth was observed” value ([3]; MRSA, 2 × MIC (1 μg/ml)) was 24 h and the “reduction in viable cell count” value ([3]; MRSA, 2 × MIC (1 μg/ml), within 4 h) was ~ 2 log. For the same compound, the “reduction in viable cell count” value ([3]; MRSA, 2 × MIC (1 μg/ml), within 5 h) was roughly 3 log, the Antimicrobial susceptibility testing (S. aureus isolates [1]; MRSA-1) was “S” and the Antimicrobial susceptibility testing (S. aureus isolates [1]; MRSA-2) was “S”. For the same compound, the Antimicrobial susceptibility testing (S. aureus isolates [1]; MRSA-3) was “S”, the Antimicrobial susceptibility testing (S. aureus isolates [1]; MSSA-1) was “S” and the Antimicrobial susceptibility testing (S. aureus isolates [1]; MSSA-2) was “S”. For the same compound, the MBC (S. aureus isolates [4]; ATCC25923) was 0.25 µg/mL (≈ 0.173 µM), the MBC (S. aureus isolates [4]; MRSA-1) was 0.5 µg/mL (≈ 0.345 µM) and the MBC (S. aureus isolates [4]; MRSA-2) was 0.5 µg/mL (≈ 0.345 µM). For the same compound, the MBC (S. aureus isolates [4]; MRSA-3) was 0.5 µg/mL (≈ 0.345 µM), the MBC (S. aureus isolates [4]; MSSA-1) was 0.25 µg/mL (≈ 0.173 µM) and the MBC (S. aureus isolates [4]; MSSA-2) was 0.25 µg/mL (≈ 0.173 µM).
In the case of Amoxicillin/clavulanic acid [AMC], the Antimicrobial susceptibility testing (S. aureus isolates [1]; MRSA-1) is reported as “R”, the Antimicrobial susceptibility testing (S. aureus isolates [1]; MRSA-2) is reported as “R” and the Antimicrobial susceptibility testing (S. aureus isolates [1]; MRSA-3) is reported as “R”. For the same compound, the Antimicrobial susceptibility testing (S. aureus isolates [1]; MSSA-1) was “S” and the Antimicrobial susceptibility testing (S. aureus isolates [1]; MSSA-2) was “S”.
In the case of KLKLLLLLKL [KLK1, variant of KLK], the MIC [5] is listed as greater than 256 µM, the killing ([6]; against 62.5% of the tested isolates within 24 h) is listed as ~ 99% and the MIC ([6]; drug resistant Mycobacterium abscessus isolates) is listed as less than 50 µg/mL.
In the case of Trimethoprim/sulphamethoxazole [SXT], the Antimicrobial susceptibility testing (S. aureus isolates [1]; MRSA-1) is reported as “S”, the Antimicrobial susceptibility testing (S. aureus isolates [1]; MRSA-2) is reported as “S” and the Antimicrobial susceptibility testing (S. aureus isolates [1]; MRSA-3) is reported as “R”. The Antimicrobial susceptibility testing (S. aureus isolates [1]; MSSA-1) was “S” and the Antimicrobial susceptibility testing (S. aureus isolates [1]; MSSA-2) was “S”.
